Test results published in patent publication US20110123617A1, “CLIOQUINOL FOR THE TREATMENT OF HEMATOLOGICAL MALIGNANCIES” (priority 2007, published 2011).

Legend:
[1] = test system: p21; assay: Immunoblotting of p21; assay type: cell-based; settings: low micromolar concentrations
Excerpt: (§1) A) Effect of increasing concentrations of clioquinol on LP1 and MY5 multiple myeloma cells at twenty hours after clioquinol treatment; determined by SDS-PAGE immunoblotting. B) Effect of increasing concentrations of clioquinol on the G0/G1 ratio in AML3, U937, LP1 and MY5 cells at twenty hours after clioquinol treatment; determined by PI staining and flow cytometry. To prepare cytosolic extracts, NIH3T3 cells and myeloma cells were washed with phosphate-buffered saline (PBS, pH 7.4) and suspending in lysis buffer [10 mM Tris (pH 7.4), 150 mM NaCl, 0.1% Triton X-100, 0.5% sodium deoxycholate, and 5 mM EDTA] containing protease inhibitors (Complete tablets, Roche, Indianapolis, Ind.). Protein concentrations were determined by the Bradford assay. Immunoblot assays were performed by subjecting equal amounts of protein to SDS-PAGE gels followed by transfer to Nitrocellulose membranes. Membranes were probed with polyclonal rabbit anti-human cyclin D2 (0.5 μg/ml, both from Santa Cruz Biotech, Santa Cruz, Calif.), or monoclonal mouse-anti human p21 (1:200 v/v, Santa Cruz Biotech), monoclonal mouse-anti human p27 (1:2,500 v/v BD Transduction Laboratories), polyclonal mouse-anti human ubiquitin (1:2,000 v/v Calbiochem) and monoclonal mouse-anti-β-actin (1:10,000 v/v) (Sigma, St. Lois, Mo.). […] Detection was performed by the Enhanced Chemical Luminescence (ECL) method (Pierce, Rockford, Ill.).

[2] = test system: p27; assay: Immunoblotting of p27; assay type: cell-based; settings: low micromolar concentrations
Excerpt: as §1

[3] = test system: ubiquitinated proteins; assay: Immunoblotting of ubiquitinated proteins; assay type: cell-based; settings: leukemia and myeloma cells
Method: Effect of increasing concentrations of clioquinol on LP1 and MY5 multiple myeloma cells at twenty hours after clioquinol treatment; determined by SDS-PAGE immunoblotting. To prepare cytosolic extracts, NIH3T3 cells and myeloma cells were washed with phosphate-buffered saline (PBS, pH 7.4) and suspending in lysis buffer [10 mM Tris (pH 7.4), 150 mM NaCl, 0.1% Triton X-100, 0.5% sodium deoxycholate, and 5 mM EDTA] containing protease inhibitors (Complete tablets, Roche, Indianapolis, Ind.). Protein concentrations were determined by the Bradford assay. Immunoblot assays were performed by subjecting equal amounts of protein to SDS-PAGE gels followed by transfer to Nitrocellulose membranes. Membranes were probed with polyclonal rabbit anti-human cyclin D2 (0.5 μg/ml, both from Santa Cruz Biotech, Santa Cruz, Calif.), or monoclonal mouse-anti human p21 (1:200 v/v, Santa Cruz Biotech), monoclonal mouse-anti human p27 (1:2,500 v/v BD Transduction Laboratories), polyclonal mouse-anti human ubiquitin (1:2,000 v/v Calbiochem) and monoclonal mouse-anti-β-actin (1:10,000 v/v) (Sigma, St. Lois, Mo.). Secondary antibodies (Amersham Bioscience UK, Little Chalfont, England) were horseradish peroxidase (HRP)-conjugated goat anti-mouse IgG (1:10,000 v/v) and anti-rabbit (1:5,000 v/v). Detection was performed by the Enhanced Chemical Luminescence (ECL) method (Pierce, Rockford, Ill.).

[4] = test system: MDAY-D2 murine leukemia cells
Method: DBA-2 mice were injected intraperitoneally with MDAY-D2 murine leukemia cells. Mice were then treated twice daily by oral gavage with clioquinol (100 mg/kg) dissolved in intralipid or intralipid control. Ten days after treatment, mice were sacrificed, the intraperitoneal tumor excised, and the weight and volume of the tumor measured.
MDAY-D2 leukemia cells were injected intraperitoneally into DBA2 mice. Mice were then treated twice daily with oral clioquinol (100 mg/kg) for 10 days. Ten days after treatment, mice were sacrificed and the weight and volume of the intraperitoneal tumor was measured (FIG. 7). […] K562 leukemia cells were injected subcutaneous into sublethally irradiated […] mice. The clioquinol treatment was initiated when tumors reached volumes of 200 mm^3 at which time mice were randomized to receive 100 mg/kg of clioquinol (treated group) or buffer control (untreated group) for 5 of 7 days. Caliper measurements were performed twice weekly to estimate tumor volume and differences compared between treated and untreated groups.

[5] = test system: myeloma cell lines; assay: Cell viability (MTS assay), myeloma cell lines; assay type: cell-based; settings: 12/14 myeloma cell lines, forty-eight hours; read-out: IC50 (cell death)
Method: (§2) Cell viability of leukemia, myeloma, solid tumor and primary cells forty-eight hours after clioquinol treatment by MTS assay. Cell viability was assessed with the CellTiter96® Aqueous Non-Radioactive Assay kit according to manufactures' instructions (Promega). Apoptosis was measured by flow cytometry to detect cell surface Annexin V expression and propidium iodide (PI) uptake (Biovision, Mountain View, Calif., USA) as previously described (20) The inventors tested the effects of clioquinol on the viability of acute leukemia (n=7), myeloma (n=14), and solid tumor (n=5) cell lines as well as primary AML samples (n=6) and primary normal hematopoietic cells (n=3). Forty-eight hours after incubation, clioquinol induced cell death in 6/7 AML, 12/14 myeloma, 0/5 solid tumor, […] and 0/3 normal hematopoietic cells with an IC50 <20 μM (FIG. 5). Of note, after oral administration of clioquinol, trough serum concentrations of 20 μM can be achieved in patients (32).

[6] = test system: primary AML patient samples; assay: Cell viability (MTS assay), primary AML patient samples; assay type: cell-based, human
Method: as §2

[7] = test system: AML3, U937, LP1 and MY5 cells; assay: Cell cycle analysis (PI staining and flow cytometry); assay type: cell-based; settings: low micromolar concentrations
Method: A) Effect of increasing concentrations of clioquinol on LP1 and MY5 multiple myeloma cells at twenty hours after clioquinol treatment; determined by SDS-PAGE immunoblotting. B) Effect of increasing concentrations of clioquinol on the G0/G1 ratio in AML3, U937, LP1 and MY5 cells at twenty hours after clioquinol treatment; determined by PI staining and flow cytometry. Cells were harvested, washed with cold PBS, suspended in 70% cold ethanol and incubated overnight at −20° C. Cells were then treated with 100 ng/ml of DNase-free RNase (InvitroGen) at 37° C. for 30 min, washed with cold PBS, and resuspended in PBS with 50 μg/ml of propidium iodine. DNA content was analyzed by flow cytometry (FACSCalibur, Becton Dickinson, Fla., USA). The percentage of cells in each phase of the cell cycle was calculated with ModiFit software (Becton Dickinson).

## Oc1c(I)cc(Cl)c2cccnc12 [clioquinol, 5-chloro-7-iodo-8-hydroxyquinoline]
[1]
  expression of p21: increased expression
[2]
  expression of p27: increased expression
[3]
  amount of ubiquitinated protein: increased the amount of ubiquitinated protein
[4]; 100 mg/kg oral twice daily for 10 days
  tumor progression (weight and volume of intraperitoneal tumor): delayed tumor progression
[4]; in vivo mouse model of leukemia
  tumor weight: dramatically reduces tumor weight
[5]
  IC50: < 20 µM
[6]; Homo sapiens, 6/7 primary AML patient samples, forty-eight hours, read-out: IC50 (cell death)
  IC50: < 20 µM
[6]; primary AML cells supplemented with copper
  potency of clioquinol: increased the potency of clioquinol
[7]
  cell cycle arrest: arrested cells in the G1 phase
